Converted amounts (≈) assume the structure as drawn. Read-outs that look alike come from different tables or passages of the source.
Legend:
[1] = Hardening time of photopolymerizable resin film under continuous xenon lamp irradiation (until surface ceases to be sticky)
Source text: Bisphenol A diglycidyl ether diacrylate
(§1) Trimethylolpropane triacrylate
Triethanolamine 2.5 parts by weight
Photopolymerization initiator of formula (I)
(dialkylthioxanthone derivative)
Irradiation device and conditions: […]

[2] = Yellowing resistance of coating film after irradiation, estimated visually; design: key: A: Only slight yellowing; B: Clear yellowing; C: Remarkable yellowing
Source text: The above photopolymerizable resin composition was applied to a glass plate in a thickness of 25μ and left 9 cm below a xenone lamp. The sensitivity was judged by measuring the time until the surface of the coated film ceases to be sticky (whether the coated film is sticky or not is judged by the touch with finger) under the continuous irradiation.
*^1 Yellowing resistance in the above table was estimated
visually from the state of the coating film after the

[3] = Solubility in organic solvents; assay type: physicochemical; details: organic solvent or mixture
[4] = dispersed in resin, storage for a long period; background; cited from earlier work
[5] = unsubstituted thioxanthone, background; cited from earlier work
[6] = Yellowing resistance of pigmented coating film; design: key: A: Only slight yellowing; B: Clear yellowing; C: Remarkable yellowing; details: Table V; composition (B), titanium oxide; same criteria as Table II
Experimental: (§2) The following photopolymerizable resin compositions (A) and (B) were prepared. Each of the compositions was applied to an aluminum plate in a thickness of 25μ. The aluminum plate was placed on a belt conveyer moving 20 cm below an 80 W/cm high-pressure mercury lamp at a speed of 18 m/min. Relationship between the number of passage times and physical properties of the coating film was examined to obtain the results shown in Table V.
(§3) (B) Titanium oxide-containing
(§4) Urethane acrylate resin
as §1
(§5) Butyl acrylate 18.8 parts by weight
(§6) Vinylpyrrolidone 9.4 parts by weight
(§7) Titanium oxide (rutile type)
(§8) Methyldiethanolamine 1.5 parts by weight
(§9) Photopolymerization initiator of
*^3 Yellowing resistance was estimated based on the same criteria as i

[7] = Pencil hardness of pigmented coating film after passing under high-pressure mercury lamp (JIS K 5400); details: for Pencil hardness after passing 3 times / Pencil hardness after passing 5 times: composition (A), carbon black; for Pencil hardness after passing 3 times: 3 passages; for Pencil hardness after passing 5 times: 5 passages; for Pencil hardness after passing 6 times: composition (B), titanium oxide, 6 passages
Experimental: as §2
(A) Carbon black-containing composition:
Epoxy acrylate resin (Shell
as §1
Hexanediol diacrylate 14.8 parts by weight
Carbon black 2.5 parts by weight
Methyldiethanolamine 2.0 parts by weight
as §9, §3, §4, §5, §6, §7, §8
*^2 Pencil hardness was determined according to JISK 5400 6, 14.

[8] = Hardening of trifunctional maleimide photopolymerizable resin film under high-pressure mercury lamp; details: 2.5 parts per 100 parts resin; 50μ on glass; 80 W/cm Hg lamp, 10 cm, 20 sec
Experimental: 16 Parts of diglycerol triglycidyl ether, 23 parts by weight of α-phenylmaleimidoacetic acid, 0.2 part by weight of dimethylaminoethyl methacrylate and 40 parts by weight of butyl acetate were reacted together at 90°-100° C. for 2 h to obtain a trifunctional photopolymerizable resin in which α-phenylmaleimidoacetic acid was added to substantially all glycidyl groups. 2.5 Parts by weight of 2,4-diisopropylthioxanthone of the present invention was added to 100 parts by weight of the above resin and the whole was kneaded thoroughly and applied onto a glass plate in a thickness of 50μ. […] In case 2,4-diisopropylthioxanthone was not added, the film was not hardened even after 60 min.

[9] = Table III, Control Example 1, same criteria as Table II
[10] = Table II, 2.5 parts initiator, 2.5 parts triethanolamine, 25μ film on glass, xenon lamp 9 cm
[11] = Table II, visual, after irradiation
[12] = 1,2-dichloroethane, read-out: Solubility, 1,2-Dichloroethane
[13] = 1,2-dichloropropane, read-out: Solubility, 1,2-Dichloropropane
[14] = acetone, read-out: Solubility, Acetone
[15] = ethanol, read-out: Solubility, Ethanol
[16] = ethyl acetate, read-out: Solubility, Ethyl acetate
[17] = methanol, read-out: Solubility, Methanol
[18] = toluene, read-out: Solubility, Toluene

Molecule: CCc1ccc(C)c2c(=O)c3ccccc3sc12 [1-Methyl-4-ethylthioxanthone]
- Hardening time ([1]; Table III, Control Example 1): 50 s
- Yellowing resistance [2, 9]: B

Molecule: CC(C)c1ccc2sc3ccccc3c(=O)c2c1 [Isopropylthioxanthone]
- Hardening time ([1]; Table III, Control Example 1): 20 s
- Yellowing resistance [2, 9]: B

Molecule: CC(C)(C)c1cc(C(C)(C)C)c2sc3ccccc3c(=O)c2c1 [Example 10, 2,4-di-tert-butylthioxanthone]
- Hardening time [1, 10]: 25 s
- Yellowing resistance [2, 11]: A

Molecule: CCc1ccc2sc3ccccc3c(=O)c2c1C [1-Methyl-2-ethylthioxanthone]
- Hardening time ([1]; Table III, Control Example 1): > 60 s

Molecule: Cc1ccc(C)c2c(=O)c3ccccc3sc12 [1,4-Dimethylthioxanthone]
- Hardening time ([1]; Table III, Control Example 1): 40 s
- Yellowing resistance [2, 9]: B

Molecule: CC(C)c1ccc(C(C)C)c2c(=O)c3ccccc3sc12 [1,4-Diisopropylthioxanthone]
- Hardening time ([1]; Table III, Control Example 1): 50 s
- Yellowing resistance [2, 9]: A

Molecule: Ethylthioxanthone
- Hardening time ([1]; Table III, Control Example 1): 40 s
- Yellowing resistance [2, 9]: C

Molecule: Cc1ccc2sc3ccccc3c(=O)c2c1 [Compound 2, 2-methylthioxanthone]
- solubility [3, 12]: 166 mg/mL (≈ 734 mM)
- solubility [3, 13]: 77 mg/mL (≈ 340 mM)
- solubility [3, 14]: 30 mg/mL (≈ 133 mM)
- solubility [3, 15]: < 10 mg/mL
- solubility [3, 16]: 29 mg/mL (≈ 128 mM)
- solubility [3, 17]: < 10 mg/mL
- solubility [3, 18]: 55 mg/mL (≈ 243 mM)

Molecule: O=c1c2ccccc2sc2ccccc12 [Compound 1, thioxanthone]
- Hardening time ([1]; Table III, Control Example 1): > 60 s
- solubility [3, 12]: 11 mg/mL (≈ 51.8 mM)
- solubility [3, 13]: < 5 mg/mL
- solubility [3, 14]: < 5 mg/mL
- solubility [3, 15]: < 5 mg/mL
- solubility [3, 16]: 5 mg/mL (≈ 23.6 mM)
- solubility [3, 17]: < 5 mg/mL
- solubility [3, 18]: < 5 mg/mL
- Crystallization during storage [4]: crystallizes out during the storage for a long period of time
- Solubility in and compatibility with photopolymerizable compound [5]: poor solubility

Molecule: Methylthioxanthone
- Hardening time ([1]; Table III, Control Example 1): 40 s
- Yellowing resistance [2, 9]: C

Molecule: CCc1c(C(C)C)ccc2sc3ccccc3c(=O)c12 [1-Ethyl-2-isopropylthioxanthone]
- Hardening time ([1]; Table III, Control Example 1): 50 s
- Yellowing resistance [2, 9]: A

Molecule: CCc1ccc(CC)c2c(=O)c3ccccc3sc12 [1,4-Diethylthioxanthone]
- Hardening time ([1]; Table III, Control Example 1): 50 s
- Yellowing resistance [2, 9]: A

Molecule: CCc1cc(CC)c2sc3ccccc3c(=O)c2c1 [Example 1, 2,4-diethylthioxanthone]
- Hardening time [1, 10]: 15 s
- Yellowing resistance [6]: A
- Pencil hardness after passing 3 times [7]: 3H
- Pencil hardness after passing 5 times [7]: 6H
- Pencil hardness after passing 6 times [7]: 3H
- Yellowing resistance [2, 11]: A

Molecule: CC(C)c1ccc2sc3ccccc3c(=O)c2c1 [Compound 3, 2-isopropylthioxanthone]
- solubility [3, 12]: > 500 mg/mL
- solubility [3, 13]: > 500 mg/mL
- solubility [3, 14]: 300 mg/mL (≈ 1180 mM)
- solubility [3, 15]: 36 mg/mL (≈ 142 mM)
- solubility [3, 16]: 300 mg/mL (≈ 1180 mM)
- solubility [3, 17]: 33 mg/mL (≈ 130 mM)
- solubility [3, 18]: > 500 mg/mL

Molecule: CC(C)c1cc(C(C)C)c2sc3ccccc3c(=O)c2c1 [Example 2, 2,4-diisopropylthioxanthone]
- Hardening time [1, 10]: 10 s
- solubility [3, 12]: > 500 mg/mL
- solubility [3, 13]: > 500 mg/mL
- solubility [3, 14]: > 400 mg/mL
- solubility [3, 15]: 90 mg/mL (≈ 304 mM)
- solubility [3, 16]: > 500 mg/mL
- solubility [3, 17]: 60 mg/mL (≈ 202 mM)
- solubility [3, 18]: > 500 mg/mL
- Hardened coating film [8]: coating film insoluble in dichloroethane or acetone
- Yellowing resistance [6]: A
- Pencil hardness after passing 3 times [7]: 4H
- Pencil hardness after passing 5 times [7]: ≥ 6H
- Pencil hardness after passing 6 times [7]: 4H
- Yellowing resistance [2, 11]: A

Molecule: Cc1cc(C(C)(C)C)cc2c(=O)c3ccccc3sc12 [Example 5, m-tert-butylmethyl thioxanthone]
- Hardening time [1, 10]: 15 s
- Yellowing resistance [2, 11]: A

From patent US4450279A, “Dialkylthioxanthones” (priority 1981, dated 1984)
